# Measurements reported in patent US12472177B2, “Bicyclic compounds and methods for their use in treating Pitt Hopkins syndrome” (NEUREN PHARMACEUTICALS LIMITED, priority 2019, dated 2025).
# Tests used:
# Tcf4^+/− mice [1] = assay: Self grooming (repetitive behavior); type: in vivo, mouse; design: key to Self-Grooming/Repetitive Behavior: Tukey’s Multiple Comparison Test Summary: **** = p < 0.00001; ns = not significant
# Method: (§1) In vivo behavioral studies were conducted in Tcf4^+/− mutant and wildtype littermate control (WT) mice by Gen.DDI (Santiago, Chile). Littermate controls consist of the genotypes Tcf4^+/+. All Tcf4 mutant mice used were heterozygous for the Tcf4 mutation because homozygous mutations of Tcf4 result in embryonic to postnatal day 1 lethality. Ten mice per treatment group, 14 weeks of age, were used for behavioral experiments. Experiments were conducted in line with the requirements of the UK Animals (Scientific Procedures) Act, 1986. The mice were housed in plastic cages (35×30×12 cm), 5 in each and habituated to the animal facilities for at least a week before commencing the test. The room temperature (21° C.±2° C.), relative humidity (55%±5%), a 12-hour light-dark cycle (lights on 7 AM to 7 PM), and air exchange were automatically controlled. The animals had free access to commercial food pellets and water. Testing was performed during the light phase of the circadian cycle, with the order of testing being determined by the principle of conducting the most stressful tests last. Assays were designed to reproduce and expand on the original behavioral characterization of Tcf4^+/− mice. Tcf4^+/− and WT control mice were treated for 6 weeks prior to testing and tested 30 minutes following a dose of cG-2-AllylP, as described in Table 2 below.
# Repetitive self-grooming is a feature of mice. Tcf4^+/− mice show an increased amount of self-grooming compared to wild type mice. To see if NNZ-2591 (cG-2-AllylP) can normalize self-grooming behavior in Tcf4^+/− mice, we carried out a series of studies, as shown in FIG. 3.
# The amount of time spent grooming in seconds during a 10-minute test period is shown on the vertical axis, and the animals and treatments are shown on the horizontal axis. Wild type (WT) mice treated with vehicle alone (left column) self-groomed for about 110 sec. […] This difference was not statistically significant. […] This statistically significant finding was completely unexpected in Tcf4^+/− mice.
# Tcf4^+/− mice [2] = assay: Fear conditioning (time freezing); type: in vivo, mouse; design: key to Fear Conditioning: Tukey’s Multiple Comparisons Test Summary: **** = p < 0.00001; ns = not significant
# Method: as §1
# Fear conditioning to either an event or a context represents a form of associative learning that has been well studied in many species. In mice, fear is often shown as stopping movement, also known as freezing behavior. Freezing is adaptive for prey species because predators often locate moving prey. The dependent measure used in contextual (delay) fear conditioning is a freezing response that takes place following pairing of an unconditioned stimulus (foot shock), with a conditioned stimulus (CS; e.g., an audible tone), a particular context and/or such a cue. If in a conditioning context one administers a foot shock that is paired with a tone, there will be learning not only to the tone, but also to the context.
# Contextual fear conditioning is a basic conditioning procedure. It involves taking an animal and placing it in a novel environment, providing an aversive stimulus, and then removing it. […] Freezing is a response to fear, which has been defined as “absence of movement except for respiration.” This freezing behavior may last from seconds to minutes depending on the strength of the aversive stimulus, the number of presentations, and the degree of learning achieved by the subject.
# Animals with the Tcf4^+/− mutation show less freezing behavior than wild type mice. This maladaptive behavior can have serious consequences. Therefore, to determine if NNZ-2591 (cG-2-AllylP) can restore normal fear conditioning in Tcf4^+/− mice, we carried out a series of studies.
# The percent of time spent in freezing over a 5-minute test period is shown on the vertical axis of FIG. 4. Animals and their treatments are shown on the horizontal axis.
# Tcf4^+/− mice [3] = assay: Nest building (test of daily living); type: in vivo, mouse
# Method: as §1
# Nest building is an activity needed for mice to raise their offspring and is an indicator of social adaptation and activities of daily living. Tcf4^+/− mice build nests of substantially lower quality than wild type mice. Therefore, to determine if NNZ-2591 (cG-2-AllylP) might restore the quality of nest building, we carried out a series of studies.
# Tcf4^+/− mice [4] = assay: Tcf4^+/− mouse model of Pitt Hopkins Syndrome, all tested behaviors (summary); type: in vivo
# Method: Several genetically manipulated rodent models of PTHS have been created (Thaxton et al, 2018; Sweatt, 2013). These models share a common basis around heterozygous Tcf4 (Tcf4^+/−). Haploinsufficient mice (Tcf4^+/−) have been characterized as a model system for PTHS (Kennedy et al, 2016).
# as §1
# [5] = Tcf4^+/− + cG-2-AllylP (100 mg/kg) vs Tcf4^+/− + cG-2-AllylP (200 mg/kg)
# [6] = Tcf4^+/− + cG-2-AllylP (100 mg/kg) vs WT + cG-2-AllylP (200 mg/kg)
# [7] = Tcf4^+/− + vehicle vs Tcf4^+/− + cG-2-AllylP (100 mg/kg)
# [8] = Tcf4^+/− + vehicle vs Tcf4^+/− + cG-2-AllylP (200 mg/kg)
# [9] = Tcf4^+/− + vehicle vs WT + cG-2-AllylP (100 mg/kg)
# [10] = Tcf4^+/− + vehicle vs WT + cG-2-AllylP (200 mg/kg)
# [11] = Tcf4^+/− mice, 100 mg/kg oral BID 6 weeks, 100 mg/kg
# [12] = WT + cG-2-AllylP (100 mg/kg) vs Tcf4^+/− + cG-2-AllylP (100 mg/kg)
# [13] = WT + cG-2-AllylP (100 mg/kg) vs Tcf4^+/− + cG-2-AllylP (200 mg/kg)
# [14] = WT + cG-2-AllylP (100 mg/kg) vs WT + cG-2-AllylP (200 mg/kg)
# [15] = WT + cG-2-AllylP (200 mg/kg) vs Tcf4^+/− + cG-2-AllylP (200 mg/kg)
# [16] = WT + vehicle vs Tcf4^+/− + cG-2-AllylP (100 mg/kg)
# [17] = WT + vehicle vs Tcf4^+/− + cG-2-AllylP (200 mg/kg)
# [18] = WT + vehicle vs WT + cG-2-AllylP (100 mg/kg)
# [19] = WT + vehicle vs WT + cG-2-AllylP (200 mg/kg)
# [20] = WT mice, 100 mg/kg oral BID 6 weeks
# [21] = WT mice, 200 mg/kg oral BID 6 weeks
compound,measurement,setting,value
"C=CC[C@]12CCCN1C(=O)CNC2=O [cG-2-AllylP, (8aS)-Allyl-hexahydropyrrolo[1,2-a]pyrazine-1,4-dione]",Self-Grooming/Repetitive Behavior: Tukey’s Multiple Comparison Test Summary,Tcf4^+/− mice [1]; [5],ns
same,Self-Grooming/Repetitive Behavior: Tukey’s Multiple Comparison Test Summary,Tcf4^+/− mice [1]; [6],ns
same,Self-Grooming/Repetitive Behavior: Tukey’s Multiple Comparison Test Summary,Tcf4^+/− mice [1]; [7],**** (**** = p < 0.0001)
same,Self-Grooming/Repetitive Behavior: Tukey’s Multiple Comparison Test Summary,Tcf4^+/− mice [1]; [8],**** (**** = p < 0.0001)
same,Self-Grooming/Repetitive Behavior: Tukey’s Multiple Comparison Test Summary,Tcf4^+/− mice [1]; [9],**** (**** = p < 0.0001)
same,Self-Grooming/Repetitive Behavior: Tukey’s Multiple Comparison Test Summary,Tcf4^+/− mice [1]; [10],**** (**** = p < 0.0001)
same,Behavior Normalized to WildType Levels: Self-groom,"Tcf4^+/− mice [1]; Tcf4^+/− mice, 100 mg/kg",✓
same,Time spent self-grooming during a 10-minute test period,Tcf4^+/− mice [1]; [11],corrected
same,Time spent self-grooming during a 10-minute test period,"Tcf4^+/− mice [1]; Tcf4^+/− mice, 100 mg/kg oral BID 6 weeks, listed as NNZ-2591, 100 mg/kg",about the same amount of time self-grooming as WT vehicle treated mice
same,Behavior Normalized to WildType Levels: Self-groom,"Tcf4^+/− mice [1]; Tcf4^+/− mice, 200 mg/kg",✓
same,Time spent self-grooming during a 10-minute test period,"Tcf4^+/− mice [1]; Tcf4^+/− mice, 200 mg/kg oral BID 6 weeks, 200 mg/kg",corrected
same,Time spent self-grooming during a 10-minute test period,"Tcf4^+/− mice [1]; Tcf4^+/− mice, 200 mg/kg oral BID 6 weeks, listed as NNZ-2591, 200 mg/kg",about the same amount of time self-grooming as WT vehicle treated mice
same,Self-Grooming/Repetitive Behavior: Tukey’s Multiple Comparison Test Summary,Tcf4^+/− mice [1]; [12],ns
same,Self-Grooming/Repetitive Behavior: Tukey’s Multiple Comparison Test Summary,Tcf4^+/− mice [1]; [13],ns
same,Self-Grooming/Repetitive Behavior: Tukey’s Multiple Comparison Test Summary,Tcf4^+/− mice [1]; [14],ns
same,Self-Grooming/Repetitive Behavior: Tukey’s Multiple Comparison Test Summary,Tcf4^+/− mice [1]; [15],ns
same,Self-Grooming/Repetitive Behavior: Tukey’s Multiple Comparison Test Summary,Tcf4^+/− mice [1]; [16],ns
same,Self-Grooming/Repetitive Behavior: Tukey’s Multiple Comparison Test Summary,Tcf4^+/− mice [1]; [17],ns
same,Self-Grooming/Repetitive Behavior: Tukey’s Multiple Comparison Test Summary,Tcf4^+/− mice [1]; [18],ns
same,Self-Grooming/Repetitive Behavior: Tukey’s Multiple Comparison Test Summary,Tcf4^+/− mice [1]; [19],ns
same,Time spent self-grooming during a 10-minute test period,Tcf4^+/− mice [1]; [20],about the same amount of time as did WT mice treated with vehicle alone
same,Fear Conditioning: Tukey’s Multiple Comparisons Test Summary,Tcf4^+/− mice [2]; [5],*** (*** = p < 0.001)
same,Fear Conditioning: Tukey’s Multiple Comparisons Test Summary,Tcf4^+/− mice [2]; [6],**** (**** = p < 0.0001)
same,Fear Conditioning: Tukey’s Multiple Comparisons Test Summary,Tcf4^+/− mice [2]; [7],**** (**** = p < 0.0001)
same,Fear Conditioning: Tukey’s Multiple Comparisons Test Summary,Tcf4^+/− mice [2]; [8],**** (**** = p < 0.0001)
same,Fear Conditioning: Tukey’s Multiple Comparisons Test Summary,Tcf4^+/− mice [2]; [9],**** (**** = p < 0.0001)
same,Fear Conditioning: Tukey’s Multiple Comparisons Test Summary,Tcf4^+/− mice [2]; [10],**** (**** = p < 0.0001)
same,Time spent in freezing behavior over a 5-minute test period,Tcf4^+/− mice [2]; [11],improved but remained significantly different to Wild Type
same,Behavior Normalized to WildType Levels: Fear Con,"Tcf4^+/− mice [2]; Tcf4^+/− mice, 200 mg/kg",✓
same,Fear Conditioning: Tukey’s Multiple Comparisons Test Summary,Tcf4^+/− mice [2]; [12],ns
same,Fear Conditioning: Tukey’s Multiple Comparisons Test Summary,Tcf4^+/− mice [2]; [13],nx
same,Fear Conditioning: Tukey’s Multiple Comparisons Test Summary,Tcf4^+/− mice [2]; [14],ns
same,Fear Conditioning: Tukey’s Multiple Comparisons Test Summary,Tcf4^+/− mice [2]; [15],ns
same,Fear Conditioning: Tukey’s Multiple Comparisons Test Summary,Tcf4^+/− mice [2]; [16],* (* = p < 0.05)
same,Fear Conditioning: Tukey’s Multiple Comparisons Test Summary,Tcf4^+/− mice [2]; [17],ns
same,Fear Conditioning: Tukey’s Multiple Comparisons Test Summary,Tcf4^+/− mice [2]; [18],ns
same,Fear Conditioning: Tukey’s Multiple Comparisons Test Summary,Tcf4^+/− mice [2]; [19],ns
same,Time spent in freezing behavior over a 5-minute test period,Tcf4^+/− mice [2]; [20],about the same amount of time in freezing behavior as did vehicle-treated WT mice
same,Time spent in freezing behavior over a 5-minute test period,Tcf4^+/− mice [2]; [21],about the same amount of time in freezing behavior as did vehicle-treated WT mice
same,Test of Daily Living: Tukey’s Multiple Comparison Test Summary,Tcf4^+/− mice [3]; [5],ns
same,Test of Daily Living: Tukey’s Multiple Comparison Test Summary,Tcf4^+/− mice [3]; [6],ns
same,Test of Daily Living: Tukey’s Multiple Comparison Test Summary,Tcf4^+/− mice [3]; [7],**** (**** = p < 0.0001)
same,Test of Daily Living: Tukey’s Multiple Comparison Test Summary,Tcf4^+/− mice [3]; [8],**** (**** = p < 0.0001)
same,Test of Daily Living: Tukey’s Multiple Comparison Test Summary,Tcf4^+/− mice [3]; [9],**** (**** = p < 0.0001)
same,Test of Daily Living: Tukey’s Multiple Comparison Test Summary,Tcf4^+/− mice [3]; [10],**** (**** = p < 0.0001)
same,Behavior Normalized to WildType Levels: Nesting,"Tcf4^+/− mice [3]; Tcf4^+/− mice, 100 mg/kg",✓
same,Nest building quality (grade of 1-5),"Tcf4^+/− mice [3]; Tcf4^+/− mice, 100 mg/kg oral BID 6 weeks",normalized the quality of nests to levels nearly identical to WT mice
same,Behavior Normalized to WildType Levels: Nesting,"Tcf4^+/− mice [3]; Tcf4^+/− mice, 200 mg/kg",✓
same,Nest building quality (grade of 1-5),"Tcf4^+/− mice [3]; Tcf4^+/− mice, 200 mg/kg oral BID 6 weeks",normalized the quality of nests to levels nearly identical to WT mice
same,Test of Daily Living: Tukey’s Multiple Comparison Test Summary,Tcf4^+/− mice [3]; [12],ns
same,Test of Daily Living: Tukey’s Multiple Comparison Test Summary,Tcf4^+/− mice [3]; [13],ns
same,Test of Daily Living: Tukey’s Multiple Comparison Test Summary,Tcf4^+/− mice [3]; [14],ns
same,Test of Daily Living: Tukey’s Multiple Comparison Test Summary,Tcf4^+/− mice [3]; [15],ns
same,Test of Daily Living: Tukey’s Multiple Comparison Test Summary,Tcf4^+/− mice [3]; [16],ns
same,Test of Daily Living: Tukey’s Multiple Comparison Test Summary,Tcf4^+/− mice [3]; [17],ns
same,Test of Daily Living: Tukey’s Multiple Comparison Test Summary,Tcf4^+/− mice [3]; [18],ns
same,Test of Daily Living: Tukey’s Multiple Comparison Test Summary,Tcf4^+/− mice [3]; [19],ns
same,Nest building quality (grade of 1-5),Tcf4^+/− mice [3]; [20],nearly identical to those of vehicle-treated WT mice
same,Nest building quality (grade of 1-5),Tcf4^+/− mice [3]; [21],nearly identical to those of vehicle-treated WT mice
same,Rescue of tested behaviors of the PTHS phenotype,"Tcf4^+/− mice [4]; Tcf4^+/− mice, 100 mg/kg for 6 weeks","rescued all tested behaviors, except for fear conditioning"
same,Rescue of tested behaviors of the PTHS phenotype,"Tcf4^+/− mice [4]; Tcf4^+/− mice, 200 mg/kg for 6 weeks",rescued all tested behaviors of the PTHS phenotype
same,Rescue of the phenotype of the Tcf4^+/− knockout mouse model,"Tcf4^+/− mice [4]; Tcf4^+/− mice, oral administration for 6 weeks",can rescue the phenotype
same,Impact on wild type control mice,"Tcf4^+/− mice [4]; WT mice, oral administration for 6 weeks",no impact
